# Test results reported in patent US20040191239A1, “Treatment and prevention of reactive oxygen metabolite-mediated cellular damage” (priority 1999, published 2004).
# What was measured:
# HCV = details: cited from earlier work
# ROMs = details: predictive example; about 10 μg/kg/day subcutaneous as in Example 3
# Procedure: Histamine, a H2-receptor agonist, at approximately 10 μg/kg/day, in a pharmaceutically acceptable form is introduced by subcutaneous injection into a subject experiencing or about to experience MI. The above procedure is repeated daily for 7 days.
# Histamine is administered to a patient presenting subendocardial myocardial infarction, as described in Example 3.
# [1] = Histamine administration time: efficacy and side effects; details: administered over longer than about 30 minutes
# [2] = cited from earlier work
# [3] = tested on: brain tissue and cerebral vessels; details: cited from earlier work
# NADPH oxidase = NADPH oxidase (Homo sapiens, UniProt P04839); details: substrate of the membrane-bound oxidase; cited from earlier work
compound,measurement,setting,value
alpha-interferon,effectiveness in patients with HCV,HCV; chronic HCV infection,minimally effective
same,patients experiencing flu-like symptoms,HCV; in vivo,60-80%
same,responding patients relapsing to a more progressive disease state,HCV; in vivo,approximately 70%
"NCCc1c[nH]cn1 [Histamine, histamine]",release or production of ROMs,ROMs,prevention of the release or production of ROMs
same,efficacy,[1],decreased or lack of efficacy
"C#CCN(C)[C@H](C)Cc1ccccc1 [selegiline, L-deprenyl]",memory,"[2]; 173 people, after six months",improved significantly
same,effect on the benefits of tacrine (Cognex),"[2]; another study, combination with tacrine",enhanced the benefits of tacrine
same,NO production,[3]; brain tissue and cerebral vessels,rapid increases in NO production
same,protection of the vascular endothelium,[3]; toxic effects of amyloid-beta peptide,protected the vascular endothelium
NC(=O)C1=CN([C@@H]2O[C@H](COP(=O)(O)OP(=O)(O)OC[C@H]3O[C@@H](n4cnc5c(N)ncnc54)[C@H](O)[C@@H]3O)[C@@H](O)[C@H]2O)C=CC1 [NADH],Km,NADPH oxidase,450 µM
NC(=O)C1=CN([C@@H]2O[C@H](COP(=O)(O)OP(=O)(O)OC[C@H]3O[C@@H](n4cnc5c(N)ncnc54)[C@H](OP(=O)(O)O)[C@@H]3O)[C@@H](O)[C@H]2O)C=CC1 [NADPH],Km,NADPH oxidase,45 µM
